These results are taken from ChEMBL document CHEMBL5143749, “Discovery of Insulin/GLP-1/Glucagon Triagonists for the Treatment of Diabetes and Obesity” (ACS Med Chem Lett, 2022).

In assay [1] the target is Glucagon-like peptide 1 receptor (Homo sapiens, UniProt P43220). Kind of assay: Agonist activity at human GLP1R expressed in frozen cells assessed as measuring the cAMP level incubated for 1 hr by HitHunter chemiluminescence based assay. Format: functional, cell-based. (cAMP levels reflect the balance of adenylyl cyclase and phosphodiesterase activity.)
The species entered for assay [2] is Homo sapiens. Briefly: Selectivity ratio of EC50 for human […] expressed in frozen cells to EC50 for human GLP1R expressed in frozen cells. It is filed as cell-based.
For assay [3], the target named is Glucagon receptor (Homo sapiens, UniProt P47871). Briefly: Agonist activity at human GCGR expressed in frozen cells assessed as measuring the cAMP level incubated for 1 hr by HitHunter chemiluminescence based assay. Format: functional, cell-based.
Sequence of Glucagon receptor (P47871 whole entry): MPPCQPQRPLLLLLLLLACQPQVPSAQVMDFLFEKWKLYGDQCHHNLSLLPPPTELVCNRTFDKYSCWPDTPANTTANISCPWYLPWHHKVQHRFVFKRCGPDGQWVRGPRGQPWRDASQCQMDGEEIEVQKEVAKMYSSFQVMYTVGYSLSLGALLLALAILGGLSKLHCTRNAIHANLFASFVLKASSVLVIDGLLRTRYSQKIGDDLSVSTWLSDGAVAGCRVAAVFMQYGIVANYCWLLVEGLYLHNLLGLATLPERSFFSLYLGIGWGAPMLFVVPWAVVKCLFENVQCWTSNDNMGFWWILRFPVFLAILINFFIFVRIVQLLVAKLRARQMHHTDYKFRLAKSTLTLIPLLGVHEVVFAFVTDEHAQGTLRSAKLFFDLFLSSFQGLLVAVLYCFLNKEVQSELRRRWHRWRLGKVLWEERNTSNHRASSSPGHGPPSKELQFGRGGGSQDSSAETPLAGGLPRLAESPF

Sequence of Glucagon-like peptide 1 receptor (P43220 whole entry): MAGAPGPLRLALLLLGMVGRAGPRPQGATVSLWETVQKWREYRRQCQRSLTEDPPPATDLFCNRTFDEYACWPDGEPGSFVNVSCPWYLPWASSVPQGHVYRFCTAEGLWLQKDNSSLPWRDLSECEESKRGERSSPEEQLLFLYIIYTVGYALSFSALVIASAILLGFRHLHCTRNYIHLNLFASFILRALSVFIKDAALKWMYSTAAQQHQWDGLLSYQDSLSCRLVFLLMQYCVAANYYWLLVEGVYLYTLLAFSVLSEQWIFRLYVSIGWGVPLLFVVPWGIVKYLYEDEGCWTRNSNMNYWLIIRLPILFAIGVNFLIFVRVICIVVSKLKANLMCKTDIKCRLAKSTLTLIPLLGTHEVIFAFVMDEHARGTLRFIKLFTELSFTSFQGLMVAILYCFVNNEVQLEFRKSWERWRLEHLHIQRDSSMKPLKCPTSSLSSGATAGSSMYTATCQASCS

As a reminder, the EC50 is the concentration needed to bring the measured effect to its halfway point. As to `CCCCCCCCCCCCCCCC(=O)N[C@@H](CCC(=O)N[C@@H](CCC(=O)NCCCC[C@H](NC(=O)[C@H](CC(=O)O)NC(=O)[C@H](CO)NC(=O)[C@@H](NC(=O)[C@H](Cc1ccccc1)NC(=O)[C@@H](NC(=O)CNC(=O)[C@H](CCC(N)=O)NC(=O)[C@@H](CO)NC(=O)[C@@H](N)Cc1c[nH]cn1)[C@@H](C)O)[C@@H](C)O)C(=O)N[C@@H](CO)C(=O)N[C@@H](CCCCN)C(=O)N[C@@H](Cc1ccc(O)cc1)C(=O)N[C@@H](CC(C)C)C(=O)N[C@@H](CC(=O)O)C(=O)N[C@@H](CCC(=O)O)C(=O)N[C@@H](CCCNC(=N)N)C(=O)N[C@@H](C)C(=O)N[C@@H](C)C(=O)N[C@@H](CCC(N)=O)C(=O)N[C@@H](CCCCN=[N+]=[N-])C(=O)N[C@@H](Cc1ccccc1)C(=O)N[C@H](C(=O)N[C@@H](CCC(N)=O)C(=O)N[C@@H](Cc1c[nH]c2ccccc12)C(=O)N[C@@H](CC(C)C)C(=O)N[C@@H](CC(C)C)C(=O)N[C@@H](CC(=O)O)C(=O)N[C@H](C(N)=O)[C@@H](C)O)C(C)C)C(=O)O)C(=O)O`, the values for the EC50 in assay [1] and in assay [3] were 0.028 nM and 0.013 nM, respectively. Moreover, in assay [2], the Ratio EC50 came to 0.5.
For `CCCCCCCCCCCCCCCC(=O)N[C@@H](CCC(=O)N[C@@H](CCC(=O)NCCCC[C@H](NC(=O)[C@H](CC(=O)O)NC(=O)[C@H](CO)NC(=O)[C@@H](NC(=O)[C@H](Cc1ccccc1)NC(=O)[C@@H](NC(=O)CNC(=O)[C@H](CCC(N)=O)NC(=O)[C@@H](CO)NC(=O)[C@@H](N)Cc1c[nH]cn1)[C@@H](C)O)[C@@H](C)O)C(=O)N[C@@H](CO)C(=O)N[C@@H](CC(C)C)C(=O)N[C@@H](Cc1ccc(O)cc1)C(=O)N[C@@H](CC(C)C)C(=O)N[C@@H](CC(=O)O)C(=O)NC(C)(C)C(=O)N[C@@H](CCCNC(=N)N)C(=O)N[C@@H](C)C(=O)N[C@@H](C)C(=O)N[C@@H](CCC(N)=O)C(=O)N[C@@H](CC(=O)O)C(=O)N[C@@H](Cc1ccccc1)C(=O)N[C@H](C(=O)N[C@@H](CCC(N)=O)C(=O)N[C@@H](Cc1c[nH]c2ccccc12)C(=O)N[C@@H](CC(C)C)C(=O)N[C@@H](CC(C)C)C(=O)N[C@@H](CC(N)=O)C(=O)N[C@H](C(=O)N[C@@H](CCCCN=[N+]=[N-])C(=O)N[C@@H](CCC(N)=O)C(=O)O)[C@@H](C)O)C(C)C)C(=O)O)C(=O)O`, in assay [1], the EC50 was 1.04 nM.
On to `CCCCCCCCCCCCCCCC(=O)N[C@@H](CCC(=O)N[C@@H](CCC(=O)NCCCC[C@H](NC(=O)[C@H](CC(=O)O)NC(=O)[C@H](CO)NC(=O)[C@@H](NC(=O)[C@H](Cc1ccccc1)NC(=O)[C@@H](NC(=O)CNC(=O)[C@H](CCC(N)=O)NC(=O)[C@@H](CO)NC(=O)[C@@H](N)Cc1c[nH]cn1)[C@@H](C)O)[C@@H](C)O)C(=O)N[C@@H](CO)C(=O)N[C@@H](CCCCN)C(=O)N[C@@H](Cc1ccc(O)cc1)C(=O)N[C@@H](CC(C)C)C(=O)N[C@@H](CC(=O)O)C(=O)N[C@@H](CCC(=O)O)C(=O)N[C@@H](CCCNC(=N)N)C(=O)N[C@@H](C)C(=O)N[C@@H](C)C(=O)N[C@@H](CCCCNC(=O)COCCOCCNC(=O)CCCCN=[N+]=[N-])C(=O)N[C@@H](CC(=O)O)C(=O)N[C@@H](Cc1ccccc1)C(=O)N[C@H](C(=O)N[C@@H](CCC(N)=O)C(=O)N[C@@H](Cc1c[nH]c2ccccc12)C(=O)N[C@@H](CC(C)C)C(=O)N[C@@H](CC(C)C)C(=O)N[C@@H](CC(=O)O)C(=O)N[C@H](C(N)=O)[C@@H](C)O)C(C)C)C(=O)O)C(=O)O`, for which the Ratio EC50 in assay [2] is 0.8.
With `CCCCCCCCCCCCCCCC(=O)N[C@@H](CCC(=O)N[C@@H](CCC(=O)NCCCC[C@H](NC(=O)[C@H](CC(=O)O)NC(=O)[C@H](CO)NC(=O)[C@@H](NC(=O)[C@H](Cc1ccccc1)NC(=O)[C@@H](NC(=O)CNC(=O)[C@H](CCC(N)=O)NC(=O)C(C)(C)NC(=O)[C@@H](N)Cc1c[nH]cn1)[C@@H](C)O)[C@@H](C)O)C(=O)N[C@@H](CO)C(=O)N[C@@H](CCCCN)C(=O)N[C@@H](Cc1ccc(O)cc1)C(=O)N[C@@H](CC(C)C)C(=O)N[C@@H](CC(=O)O)C(=O)NC(C)(C)C(=O)N[C@@H](CCCNC(=N)N)C(=O)N[C@@H](C)C(=O)N[C@@H](C)C(=O)N[C@@H](CCC(N)=O)C(=O)N[C@@H](CC(=O)O)C(=O)N[C@@H](Cc1ccccc1)C(=O)N[C@H](C(=O)N[C@@H](CCC(N)=O)C(=O)N[C@@H](Cc1c[nH]c2ccccc12)C(=O)N[C@@H](CC(C)C)C(=O)N[C@@H](CC(C)C)C(=O)N[C@@H](CC(=O)O)C(=O)N[C@H](C(=O)N[C@@H](CCCCN)C(=O)N[C@@H](CCCCN=[N+]=[N-])C(N)=O)[C@@H](C)O)C(C)C)C(=O)O)C(=O)O`, in assay [2], the Ratio EC50 was determined as 1.4.
The same measure, in the same setting: the figure for `CCCCCCCCCCCCCCCC(=O)N[C@@H](CCC(=O)N[C@@H](CCC(=O)NCCCC[C@H](NC(=O)[C@H](CC(=O)O)NC(=O)[C@H](CO)NC(=O)[C@@H](NC(=O)[C@H](Cc1ccccc1)NC(=O)[C@@H](NC(=O)CNC(=O)[C@H](CCC(N)=O)NC(=O)[C@@H](CO)NC(=O)[C@@H](N)Cc1cnc[nH]1)[C@@H](C)O)[C@@H](C)O)C(=O)N[C@@H](CO)C(=O)N[C@@H](CCCCN)C(=O)N[C@@H](Cc1ccc(O)cc1)C(=O)N[C@@H](CC(C)C)C(=O)N[C@@H](CC(=O)O)C(=O)N[C@@H](C)C(=O)N[C@@H](CCCNC(=N)N)C(=O)N[C@@H](C)C(=O)N[C@@H](C)C(=O)N[C@@H](CCC(N)=O)C(=O)N[C@@H](CC(=O)O)C(=O)N[C@@H](Cc1ccccc1)C(=O)N[C@H](C(=O)N[C@@H](CCC(N)=O)C(=O)N[C@@H](Cc1c[nH]c2ccccc12)C(=O)N[C@@H](CC(C)C)C(=O)N[C@@H](CC(C)C)C(=O)N[C@@H](CC(=O)O)C(=O)N[C@H](C(N)=O)[C@@H](C)O)C(C)C)C(=O)O)C(=O)O` is 0.9.
